Earlier results in patent US8247348B1, “Method of preserving cut plant material” (priority 2007, dated 2012).

Columns and labels:
[1] = tested on: humans
[2] = tested on: fungi

## OCCO [Ethylene glycol]
[1]; adults, as little as (2 tablespoons)
  amount that can be lethal: 30 milliliters
[1]; in humans
  estimated LD100: approximately 1.4 ml/kg

## O=C([O-])c1ccccc1.[Na+] [Sodium benzoate]
[2]
  type of antifungal action: fungistatic not fungicidal
[2]; effective only in acidic conditions
  pH at which effective: < 4.5
